Consider 12 molecules from ChEMBL document CHEMBL1151014, “Tetrazole-substituted ureas as inhibitors of acyl-CoA:cholesterol O-acyltransferase (ACAT). A novel preparation of ureas from weakly nucleophilic amines” (Bioorg Med Chem Lett, 1996).

The test system of one test is Rattus norvegicus. The test is described as follows: Total serum cholesterol level was measured in rats after administering single high-fat, high cholesterol meal. Type of test: functional.
Test [1] concerns the target T1, Sterol O-acyltransferase 1 (Rattus norvegicus, UniProt O70536).
T1 sequence (O70536 whole entry): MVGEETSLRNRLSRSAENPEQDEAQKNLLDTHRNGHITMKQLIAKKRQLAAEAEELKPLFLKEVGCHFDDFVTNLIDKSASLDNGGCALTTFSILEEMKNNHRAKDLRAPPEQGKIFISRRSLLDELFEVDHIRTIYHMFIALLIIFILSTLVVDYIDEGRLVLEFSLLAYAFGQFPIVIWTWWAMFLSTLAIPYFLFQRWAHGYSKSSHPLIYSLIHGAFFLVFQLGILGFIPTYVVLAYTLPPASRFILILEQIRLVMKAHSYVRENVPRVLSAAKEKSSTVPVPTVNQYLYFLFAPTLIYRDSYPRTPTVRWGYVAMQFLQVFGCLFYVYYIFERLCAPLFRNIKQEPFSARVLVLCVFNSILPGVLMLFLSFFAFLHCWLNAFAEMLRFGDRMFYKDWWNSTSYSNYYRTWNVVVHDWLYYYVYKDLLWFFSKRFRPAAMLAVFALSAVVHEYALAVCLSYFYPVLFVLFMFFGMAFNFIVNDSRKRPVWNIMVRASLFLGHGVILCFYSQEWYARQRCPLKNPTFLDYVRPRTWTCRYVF
The test is described as follows: Liver Acyl coenzyme A:cholesterol acyltransferase inhibitory activity was determined in vitro using [1-14C]oleolyl-CoA and microsomes isolated from the livers of cholesterol fed rats. Also noted: species or system Microsome.

Test [2] deals with T2, Sterol O-acyltransferase 1 (Mus musculus, UniProt Q61263).
T2 sequence (Q61263 whole entry): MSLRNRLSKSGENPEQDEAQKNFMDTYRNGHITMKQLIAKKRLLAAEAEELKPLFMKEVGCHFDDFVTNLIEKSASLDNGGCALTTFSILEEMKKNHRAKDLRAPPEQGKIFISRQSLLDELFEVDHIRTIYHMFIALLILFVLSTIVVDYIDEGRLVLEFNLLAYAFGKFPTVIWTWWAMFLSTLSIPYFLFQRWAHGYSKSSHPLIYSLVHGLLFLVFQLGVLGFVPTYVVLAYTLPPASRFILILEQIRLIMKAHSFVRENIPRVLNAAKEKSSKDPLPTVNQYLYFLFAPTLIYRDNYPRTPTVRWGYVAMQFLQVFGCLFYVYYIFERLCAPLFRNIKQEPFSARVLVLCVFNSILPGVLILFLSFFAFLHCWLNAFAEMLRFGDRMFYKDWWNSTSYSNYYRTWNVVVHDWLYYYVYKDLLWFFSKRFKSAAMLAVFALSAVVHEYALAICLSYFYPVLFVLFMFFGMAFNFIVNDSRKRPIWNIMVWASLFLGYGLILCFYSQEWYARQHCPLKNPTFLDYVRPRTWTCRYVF
The test is described as follows: Compound was tested for its ability to penetrate the cell wall and inhibit macrophage ACAT in cell culture using murine IC-21 macrophages (MAI). Type of test: functional.

Test [3] relates to Oryctolagus cuniculus. The test is described as follows: Compound was tested for systemic bioactivity in plasma, drawn four hours post dose from cholesterol -fed rabbit, with rat liver microsomes (ABIO) at a dose of 22 mg/kg. Type of test: functional. As to conditions: 4 h; call rule not given here. On the technique in general: Liver microsomes are vesicles of endoplasmic reticulum, rich in cytochrome P450 enzymes.

The subject of test [4] is Oryctolagus cuniculus. The test is described as follows: Anti-atherosclerosis activity was determined by measuring the thoracic aortic lesion coverage in an injured cholesterol-fed rabbit (ICFR) at a dose of 25 mg/kg. Type of test: functional, Aorta.
Test [5] relates to Oryctolagus cuniculus. The test is described as follows: Compound was tested for systemic bioactivity in plasma, drawn four hours post dose from cholesterol -fed rabbit, with rat liver microsomes (ABIO) at a dose of 25 mg/kg. As to conditions: 4 h. Type of test: functional.
Test [6] concerns Oryctolagus cuniculus. The test is described as follows: Compound was tested for percent change in plasma triglycerides relative to progression control in an injured cholesterol-fed rabbit (ICFR) model at a dose of 25 mg/kg. It is filed as functional.
The subject of test [7] is Oryctolagus cuniculus. The test is described as follows: Compound was tested for percent change in total serum cholesterol relative to progression control in an injured cholesterol-fed rabbit (ICFR) model at a dose of 25 mg/kg. It is filed as functional.
The target of test [8] is T1, Sterol O-acyltransferase 1. The test is described as follows: Liver ACAT inhibitory activity was determined in vitro using [1-14C]oleolyl-CoA and microsomes isolated from the livers of cholesterol fed rats. Also noted: species or system Microsome.
Test [9] relates to Oryctolagus cuniculus. The test is described as follows: Compound was tested for systemic bioactivity in plasma, drawn four hours post dose from cholesterol -fed rabbit, with rat liver microsomes (ABIO) at a dose of 24 mg/kg. Type of test: functional. Particulars: 4 h.
Test [10] has as its system Oryctolagus cuniculus. The test is described as follows: Compound was tested for percent change in plasma triglycerides relative to progression control in an injured cholesterol-fed rabbit (ICFR) model at a dose of 25 mg/kg(p<0.10). Type of test: functional.
In test [11] the target is T2, Sterol O-acyltransferase 1. The test is described as follows: Compound was tested for its ability to penetrate the cell wall and inhibit macrophage ACAT in cell culture using murine IC-21 macrophages (MAI) at 0.1 uM; not active. It is filed as functional.
The subject of test [12] is Oryctolagus cuniculus. The test is described as follows: Compound was tested for percent change in total serum cholesterol relative to progression control in an injured cholesterol-fed rabbit (ICFR) model at a dose of 5 mg/kg. Type of test: functional.
Test [13] concerns Oryctolagus cuniculus. The test is described as follows: Compound was tested for systemic bioactivity in plasma, drawn four hours post dose from cholesterol -fed rabbit, with rat liver microsomes (ABIO) at a dose of 5 mg/kg. Type of test: functional. Particulars: 4 h.
Test [14] relates to Oryctolagus cuniculus. The test is described as follows: Compound was tested for percent change in plasma triglycerides relative to progression control in an injured cholesterol-fed rabbit (ICFR) model at a dose of 5 mg/kg. Type of test: functional.
The subject of test [15] is Oryctolagus cuniculus. The test is described as follows: Anti-atherosclerosis activity was determined by measuring the thoracic aortic lesion coverage in an injured cholesterol-fed rabbit (ICFR) model at a dose of 5 mg/kg. It is filed as functional, Aorta.
Test [16] deals with Oryctolagus cuniculus. The test is described as follows: Anti-atherosclerosis activity was determined by measuring the thoracic aortic lesion coverage in an injured cholesterol-fed rabbit (ICFR) model at a dose of 25 mg/kg. It is filed as functional, Aorta.

For orientation: IC50 means the concentration needed to halve the response being measured. A low value points to greater potency in that assay. Consider `CCCCCCCCCCCCn1nnc(N(CCCCCCC)C(=O)Nc2c(OC)cc(OC)cc2OC)n1`, for which the “Delta TC” value in the test on Rattus norvegicus is on record as -20%. The molecule further showed an IC50 in [1] of 0.29 µM.

The term inhibition in vivo denotes how much of the control response was suppressed. A high value points to a strong effect. In the case of `CCCCCCCCCCCCn1nnc(N(C(=O)Nc2c(C(C)C)cccc2C(C)C)c2ccccc2)n1`, the “Delta TC” value in the test with Rattus norvegicus was 52%. This molecule also displayed an IC50 in test [2] of 0.24 µM. The inhibition in vivo at 22 mg/kg with Oryctolagus cuniculus [3] amounted to 79%.

With `CC(C)c1cccc(C(C)C)c1NC(=O)N(c1ccccc1)c1nnn(CCCCCCCCOC2CCCCO2)n1` (stereo not drawn), the “Delta TC” value in the test on Rattus norvegicus stood at 42%. This molecule also registered an IC50 in [1] of 0.016 µM.

For `CCCCCCCCCCC(C)(C)C(=O)Nc1c(OC)cc(OC)cc1OC` [CL-976], the Lesion coverage with Oryctolagus cuniculus [4] is 39%. For the same molecule, the inhibition in vivo at 25 mg/kg in the test on Oryctolagus cuniculus [5] was determined as 73%. The “Delta TG” value in the test on Oryctolagus cuniculus [6] is reported as -7%. Further, the “Delta TC” value in the test with Oryctolagus cuniculus [7] is given as -24%.

`CCCCCCCCCCCCCCn1nnc(N(C(=O)Nc2c(OC)cc(OC)cc2OC)c2ccccc2)n1`: the “Delta TC” value in the test on Rattus norvegicus was -22%. This molecule also came in with an IC50 in test [1] of 0.071 µM.

The molecule `COc1cc(OC)c(NC(=O)N(c2ccccc2)c2nnn(CCCCCCCCCC(C)C)n2)c(OC)c1` had an IC50 in [1] of 0.04 µM.

Take `CCCCCCCCCCCCn1nnc(N(C(=O)Nc2c(OC)cc(OC)cc2OC)c2ccccc2)n1`: the IC50 in [8] amounted to 0.061 µM; in test [2] it was 0.89 µM. In addition, the “Delta TC” value in the test with Rattus norvegicus is 74%. The molecule also had an inhibition in vivo at 22 mg/kg in the test on Oryctolagus cuniculus [3] of 58%.

As to `CCCCCn1nnc(N(C(=O)Nc2c(OC)cc(OC)cc2OC)c2ccccc2)n1`, inhibition in test [8] was half-maximal at 0.45 µM (IC50). The “Delta TC” value in the test with Rattus norvegicus is listed as -43%.

Consider `COc1cc(OC)c(NC(=O)N(c2ccccc2)c2nnn(CCCCCCCCOC3CCCCO3)n2)c(OC)c1` (stereo not drawn), for which the “Delta TC” value with Rattus norvegicus was -50%. In test [1], this molecule registered an IC50 of 0.041 µM.

As for `CCCCCCCCCCCCn1nnc(N(C(=O)Nc2c(C(C)C)cccc2C(C)C)C2CCCCC2)n1`, the “Delta TC” value in the test with Rattus norvegicus is recorded as 10%. For the same molecule, the IC50 was 3.1 µM in [2] and 0.031 µM in [1]. The molecule further registered an inhibition in vivo at 24 mg/kg with Oryctolagus cuniculus [9] of 77%.

For the molecule `CCCCCCCCCCCCn1nnc(N(Cc2ccccc2)C(=O)Nc2c(OC)cc(OC)cc2OC)n1`, the half-maximal inhibitory concentration (IC50) in test [1] was 0.035 µM.

Regarding `CCCCCCCCCCCCn1nnc(N(C(=O)Nc2c(OC)cc(OC)cc2OC)C2CCCCC2)n1`, the “Delta TG” value is reported as 68% in the test with Oryctolagus cuniculus [10] and 4% in the test on Oryctolagus cuniculus [14]. Further, the IC50 result is “Not Active” in [11] and 0.057 µM in test [8]. Further, the entries for the “Delta TC” value in the test with Oryctolagus cuniculus [12], in the test on Rattus norvegicus and in the test with Oryctolagus cuniculus [7] were 22%, 67% and 21%, respectively. The molecule also displayed an inhibition in vivo at 5 mg/kg in the test with Oryctolagus cuniculus [13] of 0%. The same molecule came in with an inhibition in vivo at 25 mg/kg in the test with Oryctolagus cuniculus [5] of 58%. The Lesion coverage came out at 49% with Oryctolagus cuniculus [15] and 44% with Oryctolagus cuniculus [16].
